From patent US20140235587A1, “SUBSTITUTED PYRAZOLES AS SPHINGOSINE RECEPTOR MODULATORS” (Allergan, Inc., priority 2013, published 2014)

Molecular target: T1, human S1P1 receptor (Homo sapiens, UniProt P21453)
T1 construct: expressed in transfected cells; membranes used
Test: GTP γ35S binding assay for S1P1 activity
Format: biochemical
Details: membranes of cells stably expressing S1P1; test compounds 0.08 to 5,000 nM; 30 min at 25° C.; read-out: S1P1 EC50 (Activity potency: S1P1 receptor from GTP γ35S)
Method: Compounds were tested for S1P1 activity using the GTP γ^35S binding assay. These compounds may be assessed for their ability to activate or block activation of the human S1P1 receptor in cells stably expressing the S1P1 receptor. GTP γ^35S binding was measured in the medium containing (mM) HEPES 25, pH 7.4, MgCl2 10, NaCl 100, dithitothreitol 0.5, digitonin 0.003%, 0.2 nM GTP γ^35S, and 5 μg membrane protein in a volume of 150 μl. Test compounds were included in the concentration range from 0.08 to 5,000 nM unless indicated otherwise. Membranes were incubated with 100 μM 5′-adenylylimmidodiphosphate for 30 min, and subsequently with 10 μM GDP for 10 min on ice. Drug solutions and membrane were mixed, and then reactions were initiated by adding GTP γ^35S and continued for 30 min at 25° C. Reaction mixtures were filtered over Whatman GF/B filters under vacuum, and washed three times with 3 mL of ice-cold buffer (HEPES 25, pH7.4, MgCl2 10 and NaCl 100). Filters were dried and mixed with scintillant, and counted for ^35S activity using a β-counter. Agonist-induced GTP γ^35S binding was obtained by subtracting that in the absence of agonist. Binding data were analyzed using a non-linear regression method. In case of antagonist assay, the reaction mixture contained 10 nM S1P in the presence of test antagonist at concentrations ranging from 0.08 to 5000 nM.

T1 sequence (P21453 whole entry): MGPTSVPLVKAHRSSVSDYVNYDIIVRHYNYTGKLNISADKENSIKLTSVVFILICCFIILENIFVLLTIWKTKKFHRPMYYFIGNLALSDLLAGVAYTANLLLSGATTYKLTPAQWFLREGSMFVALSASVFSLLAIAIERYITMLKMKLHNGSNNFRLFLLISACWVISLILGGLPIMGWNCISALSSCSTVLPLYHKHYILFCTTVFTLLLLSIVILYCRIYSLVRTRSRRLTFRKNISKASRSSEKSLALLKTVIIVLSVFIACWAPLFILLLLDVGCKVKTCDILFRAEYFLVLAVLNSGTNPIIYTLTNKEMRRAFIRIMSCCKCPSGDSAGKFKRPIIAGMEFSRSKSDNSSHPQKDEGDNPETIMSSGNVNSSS

EC50 [nM] | SMILES
5.4 | CCN1N=C(c2nc(-c3cc(F)c(CNCCCP(=O)(O)O)c(F)c3)no2)CC1c1ccccc1 (centres unmarked) [Compound 6, [3-({4-[5-(1-ethyl-5-phenyl-4,5-dihydro-1H-pyrazol-3-yl)-1,2,4-oxadiazol-3-yl]-2,6-difluorobenzyl}amino)propyl]phosphonic acid]
274 | CCN1N=C(c2nc(-c3ccc(CNCCC(=O)O)cc3)no2)CC1c1ccccc1 (centres unmarked) [Compound 5, 3-({4-[5-(1-ethyl-5-phenyl-4,5-dihydro-1H-pyrazol-3-yl)-1,2,4-oxadiazol-3-yl]benzyl}amino)propanoic acid]
49 | CCN1N=C(c2nc(-c3ccc(CNCCC(=O)O)cc3F)no2)CC1c1ccccc1 (centres unmarked) [Compound 9, 3-({4-[5-(1-ethyl-5-phenyl-4,5-dihydro-1H-pyrazol-3-yl)-1,2,4-oxadiazol-3-yl]-3-fluorobenzyl}amino)propanoic acid]
11 | CCN1N=C(c2nc(-c3ccc(CNCCCP(=O)(O)O)cc3F)no2)CC1c1ccccc1 (centres unmarked) [Compound 8, [3-({4-[5-(1-ethyl-5-phenyl-4,5-dihydro-1H-pyrazol-3-yl)-1,2,4-oxadiazol-3-yl]-3-fluorobenzyl}amino)propyl]phosphonic acid]
2.6 | CCc1cc(-c2noc(C3=NN(CC)C(c4ccccc4)C3)n2)ccc1CNCCCP(=O)(O)O (centres unmarked) [Compound 10, [3-({2-ethyl-4-[5-(1-ethyl-5-phenyl-4,5-dihydro-1H-pyrazol-3-yl)-1,2,4-oxadiazol-3-yl]benzyl}amino)propyl]phosphonic acid]
18 | CCCN1N=C(c2nc(-c3ccc(CNCCCP(=O)(O)O)cc3)no2)CC1c1ccccc1 (centres unmarked) [Compound 1, [3-({4-[5-(5-phenyl-1-propyl-4,5-dihydro-1H-pyrazol-3-yl)-1,2,4-oxadiazol-3-yl]benzyl}amino)propyl]phosphonic acid]
21 | CCc1cc(-c2noc(C3=NN(CC)C(c4ccccc4)C3)n2)ccc1CNCCC(=O)O (centres unmarked) [Compound 11, 3-({2-ethyl-4-[5-(1-ethyl-5-phenyl-4,5-dihydro-1H-pyrazol-3-yl)-1,2,4-oxadiazol-3-yl]benzyl}amino)propanoic acid]
65 | CCCN1N=C(c2nc(-c3ccc(CNCCC(=O)O)cc3)no2)CC1c1ccccc1 (centres unmarked) [Compound 12, 3-({4-[5-(5-phenyl-1-propyl-4,5-dihydro-1H-pyrazol-3-yl)-1,2,4-oxadiazol-3-yl]benzyl}amino)propanoic acid]
25 | CCN1N=C(c2nc(-c3ccc(CNCCCP(=O)(O)O)cc3)no2)CC1c1ccccc1 (centres unmarked) [Compound 4, [3-({4-[5-(1-ethyl-5-phenyl-4,5-dihydro-1H-pyrazol-3-yl)-1,2,4-oxadiazol-3-yl]benzyl}amino)propyl]phosphonic acid]
42 | CCN1N=C(c2nc(-c3cc(F)c(CNCCC(=O)O)c(F)c3)no2)CC1c1ccccc1 (centres unmarked) [Compound 7, 3-({4-[5-(1-ethyl-5-phenyl-4,5-dihydro-1H-pyrazol-3-yl)-1,2,4-oxadiazol-3-yl]-2,6-difluorobenzyl}amino)propanoic acid]
6.5 | CN1N=C(c2nc(-c3ccc(CNCCCP(=O)(O)O)cc3)no2)CC1c1ccccc1 (centres unmarked) [Compound 2, [3-({4-[5-(1-methyl-5-phenyl-4,5-dihydro-1H-pyrazol-3-yl)-1,2,4-oxadiazol-3-yl]benzyl}amino)propyl]phosphonic acid]
